# Experimental data published in the supplement of paper PMC10011410.
# ± gives the standard deviation of the averaged measurements.
# What was measured:
# Conditions in all cases: 24 h
# [1] = system: U-2 OS; experiment: relative cell count vs DMSO (cell painting) (fraction of DMSO control); higher = more cells remaining (less cytotoxic)
# Summary of the method: (§1)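 U-2 OS cells were seeded at about 1,500 per well in 384-well plates and treated by pin tool for 24 h at 37 °C, usually at six 2-fold concentrations from 20 μM to 625 nM. After staining with MitoTracker, concanavalin A, phalloidin, wheat germ agglutinin, Hoechst and SYTO 14, plates were imaged on an Opera Phenix and features were extracted with CellProfiler and normalized to DMSO cells on the same plate. The activity score is the Mahalanobis distance from DMSO wells, and cell count is given relative to DMSO wells. Each value is the mean of four replicate plates.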
# [2] = system: U-2 OS; experiment: cell painting activity score (Mahalanobis distance from DMSO wells); higher = stronger morphological phenotype
# Summary of the method: as §1
# [3] = system: U-2 OS; experiment: total intracellular glutathione (GSH + GSSG) relative to DMSO (% of control); higher = more glutathione
# Experimental: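 Total intracellular glutathione (GSH + GSSG) in U-2 OS cells by GSH/GSSG-Glo after 24 h compound treatment at 5, 10 and 20 uM (some at 40 and 80 uM), as percent of DMSO control. Five technical replicate plates, averaged.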
# [4] = system: U-2 OS; experiment: intracellular GSH:GSSG ratio (calculated); higher = more reduced glutathione pool
# Experimental: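 Intracellular glutathione in U-2 OS cells after 24 h compound treatment at 5, 10 and 20 uM (some at 40 and 80 uM). Total glutathione and GSSG were measured with the GSH/GSSG-Glo kit, and the GSH:GSSG ratio was calculated. Mean of five technical replicate plates.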
# [5] = system: U-2 OS; experiment: cell viability (CellTiter-Glo) relative to DMSO (% of control); higher = more viable
# Experimental: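 Cell viability of U-2 OS cells by CellTiter-Glo after 24 h compound treatment at 5, 10 and 20 uM (some at 40 and 80 uM), measured in parallel with the glutathione assay, as percent of DMSO control. Five technical replicate plates, averaged.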
SMILES,relative cell count ([1]; 0.625 µM),relative cell count ([1]; 1.25 µM),relative cell count ([1]; 2.5 µM),relative cell count ([1]; 5 µM),relative cell count ([1]; 10 µM),relative cell count ([1]; 20 µM),cell painting activity score ([2]; 0.625 µM),cell painting activity score ([2]; 1.25 µM),cell painting activity score ([2]; 2.5 µM),cell painting activity score ([2]; 5 µM),cell painting activity score ([2]; 10 µM),cell painting activity score ([2]; 20 µM),total intracellular glutathione ([3]; 5 µM),total intracellular glutathione ([3]; 10 µM),total intracellular glutathione ([3]; 20 µM),intracellular GSH:GSSG ratio ([4]; 5 µM),intracellular GSH:GSSG ratio ([4]; 10 µM),intracellular GSH:GSSG ratio ([4]; 20 µM),cell viability ([5]; 5 µM),cell viability ([5]; 10 µM),cell viability ([5]; 20 µM),total intracellular glutathione ([3]; 40 µM),total intracellular glutathione ([3]; 80 µM),intracellular GSH:GSSG ratio ([4]; 40 µM),intracellular GSH:GSSG ratio ([4]; 80 µM),cell viability ([5]; 40 µM),cell viability ([5]; 80 µM),relative cell count ([1]; 40 µM),relative cell count ([1]; 80 µM),cell painting activity score ([2]; 40 µM),cell painting activity score ([2]; 80 µM)
S=C(Nc1ccccc1)Nc1nc(-c2ccccc2)[n+](-c2ccccc2)s1,0.907,0.951,0.994,0.926,0.955,0.94,3.57,4.45,5.25,3.52,6.94,3.81,116 ± 14,96.7 ± 11,130 ± 9.9,27.8,18.7,29,91.8 ± 2.3,106 ± 3.2,97.5 ± 6.9,,,,,,,,,,
COC(=O)c1ccc([C@H]2c3[nH]c4ccccc4c3C[C@H](C(=O)OC)N2C(=O)CCl)cc1,0.876,0.867,0.818,0.68,0.524,0.186,10.3,10.7,11.1,10.8,10,17.9,93.1 ± 5.2,75.3 ± 6.4,10.7 ± 1.2,3.83,3.98,1.09,69.6 ± 4.1,49.1 ± 4.9,6.2 ± 1.6,,,,,,,,,,
C=C1C(=O)O[C@H](CCC)[C@H]1C(=O)O,1.06,1.04,1.06,0.973,1.07,1.01,3.78,4.58,3.59,4.83,3.69,5.28,95.1 ± 3.1,90.6 ± 6.3,94.2 ± 5.9,21.5,22.5,22.9,91.7 ± 2.8,98.6 ± 6,95.5 ± 5.5,97.6 ± 5.4,100 ± 4,25.2,20.4,105 ± 3.7,105 ± 7.9,,,,
C=C(C)[C@@H](CC=C(C)C)C[C@@]12C[C@@H](CC=C(C)C)C(C)(C)[C@@](CC=C(C)C)(C(=O)/C(=C(\O)c3ccc(O)c(O)c3)C1=O)C2=O,0.996,0.96,0.961,0.986,0.836,0.53,5.64,4.81,6.25,5.03,9.54,9.17,96.4 ± 3.2,89 ± 1.9,76.7 ± 6.1,21,16.1,24.5,97 ± 2.7,101 ± 5.7,86.3 ± 7,53.2 ± 8.8,5.32 ± 1.5,21.3,0.823,44.8 ± 18,0.589 ± 0.13,0.267,0.116,14.9,28.1
